Source: US20120046284A1, “Salts and hydrates of 4-[(3-chloro-4-fluoro-phenyl)amino]-6-(cis-4--cyclohexan-1-yloxy)-7-methoxy-quinazoline, their use as a medicament and the preparation thereof” (BOEHRINGER INGELHEIM INTERNATIONAL GMBH, priority 2010, published 2012)
Values after ≈ are worked out from the molar mass of the structure shown. Counter-ions that a name gives are not always drawn.

Legend:
[1] = Solubility tests in water (2 hours shaking at ambient temperature, UV spectroscopy; pH of saturated solution); format: physicochemical; conditions: for solubility: in water, 2 hours, ambient temperature; for intrinsic pH of the saturated solution: saturated aqueous solution
Method: The solubility of the different crystalline forms of formula (I) or (6) in water is determined as follows: approx. 5 mg of the corresponding form are added to 5 ml of water. The mixture is shaken for 2 hours at ambient temperature in an overhead shaker made by the Heidolph company. Then the undissolved fractions are filtered off through a 0.45 μm PTFE filter. The dissolved fraction in the filtrate is determined by UV spectroscopy. In addition, the pH of the saturated aqueous solution is also measured with a standard pH electrode.

[2] = target: T1, human EGF-R (Homo sapiens, UniProt P00533); assay: Inhibition of the EGFR-dependent proliferation (EGF-stimulated murine haematopoietic cell line expressing human EGF-R); format: cell-based; conditions: 20 ng/ml human EGF, 48 hours at 37° C.
T1 construct: expressed in transfected cells
Method: A murine haematopoietic cell line is genetically modified so as to express functional human EGF-R. The proliferation of this cell line can therefore be stimulated by EGF.
The test is carried out as follows:
The cells are cultivated in RPMI/1640 medium. The proliferation is stimulated with 20 ng/ml of human EGF (Promega). To investigate the inhibitory activity of the compounds according to the invention these compounds are dissolved in 100% dimethylsulphoxide (DMSO) and added to the cultures in various dilutions, the maximum DMSO concentration being 1%. The cultures are incubated for 48 hours at 37° C.
In order to determine the inhibitory activity of the compound (I.1) according to the invention the relative cell number is measured in O.D. units using the Cell Titer 96TM AQueous Non-Radioactive Cell Proliferation Assay (Promega). The relative cell number is calculated as a percentage of the control and the concentration of active substance which inhibits the proliferation of the cells by 50% (IC50) is derived therefrom.

[3] = Water absorption tests (DVS, hygroscopic characteristics); format: physicochemical
Method: A DVS-1 made by Surface Measurement Systems (=SMS) is used to investigate the hygroscopic characteristics: the following humidity profiles are used: from 10-90% r.h. in steps of 10%, absorption and desorption profiles are recorded, typical weights: 10-20 mg The corresponding diagrams (kinetic and isothermic plot) of the different forms are shown in FIGS. 1c+d-5c+d.

[4] = listed as hemihydrochloride sesquihydrate (I.1)
[5] = listed as anhydrous free base (6)
[6] = listed as monohydrate free base (I.2)

T1 sequence (P00533 25-1210): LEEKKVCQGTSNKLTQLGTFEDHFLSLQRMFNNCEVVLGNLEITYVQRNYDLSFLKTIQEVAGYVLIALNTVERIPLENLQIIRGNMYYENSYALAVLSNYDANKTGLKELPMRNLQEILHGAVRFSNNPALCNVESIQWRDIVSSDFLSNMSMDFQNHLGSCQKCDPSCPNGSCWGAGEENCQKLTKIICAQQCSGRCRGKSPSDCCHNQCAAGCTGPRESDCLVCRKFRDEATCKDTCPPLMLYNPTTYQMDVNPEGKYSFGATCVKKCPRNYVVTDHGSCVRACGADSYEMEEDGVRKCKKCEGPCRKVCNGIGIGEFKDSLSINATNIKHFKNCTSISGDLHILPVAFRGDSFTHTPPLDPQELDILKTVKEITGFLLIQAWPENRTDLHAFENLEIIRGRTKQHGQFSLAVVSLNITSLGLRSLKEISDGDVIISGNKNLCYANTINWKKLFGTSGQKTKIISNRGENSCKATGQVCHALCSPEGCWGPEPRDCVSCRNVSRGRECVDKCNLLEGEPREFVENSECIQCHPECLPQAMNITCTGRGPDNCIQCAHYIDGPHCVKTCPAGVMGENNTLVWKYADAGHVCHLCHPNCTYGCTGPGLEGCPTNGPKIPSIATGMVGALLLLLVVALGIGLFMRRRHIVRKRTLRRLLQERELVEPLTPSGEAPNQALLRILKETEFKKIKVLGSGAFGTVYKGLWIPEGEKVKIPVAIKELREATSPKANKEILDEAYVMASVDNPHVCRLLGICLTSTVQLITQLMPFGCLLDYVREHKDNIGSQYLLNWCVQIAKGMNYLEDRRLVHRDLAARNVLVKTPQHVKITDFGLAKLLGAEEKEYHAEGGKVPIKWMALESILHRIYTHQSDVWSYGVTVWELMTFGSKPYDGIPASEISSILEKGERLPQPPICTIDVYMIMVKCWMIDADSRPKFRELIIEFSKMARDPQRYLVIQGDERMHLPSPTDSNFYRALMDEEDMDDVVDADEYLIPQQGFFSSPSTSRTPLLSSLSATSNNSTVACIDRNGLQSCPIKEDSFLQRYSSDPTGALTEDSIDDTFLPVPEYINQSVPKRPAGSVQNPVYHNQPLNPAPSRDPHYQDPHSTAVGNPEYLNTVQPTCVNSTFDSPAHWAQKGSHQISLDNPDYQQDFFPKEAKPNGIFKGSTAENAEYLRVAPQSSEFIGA

SMILES: COc1cc2ncnc(Nc3ccc(F)c(Cl)c3)c2cc1O[C@H]1CC[C@@H](N(C)C(=O)N2CCOCC2)CC1 [low-melting form monohydrochloride (I.3), 4-[(3-chloro-4-fluoro-phenyl)amino]-6-(cis-4-{N-[(morph-1-olin-4-yl)carbonyl]-N-methyl-amino}-cyclohexan-1-yloxy)-7-methoxy-quinazoline]
- solubility [1]: 47 µg/mL
- intrinsic pH of the saturated solution [1]: 4.0

SMILES: COc1cc2ncnc(Nc3ccc(F)c(Cl)c3)c2cc1O[C@H]1CC[C@@H](N(C)C(=O)N2CCOCC2)CC1 [Compound (I.1), 4-[(3-chloro-4-fluoro-phenyl)amino]-6-(cis-4-{N-[(morph-1-olin-4-yl)carbonyl]-N-methyl-amino}-cyclohexan-1-yloxy)-7-methoxy-quinazoline]
- IC50 [2]: 10 nM
- solubility [1, 4]: 170 µg/mL (≈ 312 µM)
- intrinsic pH of the saturated solution [1, 4]: 6.5
- hygroscopic characteristics: change in particle size or phase depending on the relative humidity [3]: no change in particle size or phase change takes place

SMILES: COc1cc2ncnc(Nc3ccc(F)c(Cl)c3)c2cc1O[C@H]1CC[C@@H](N(C)C(=O)N2CCOCC2)CC1 [(6), 4-[(3-chloro-4-fluoro-phenyl)amino]-6-(cis-4-{N-[(morph-1-olin-4-yl)carbonyl]-N-methyl-amino}-cyclohexan-1-yloxy)-7-methoxy-quinazoline]
- solubility [1, 5]: <1 µg/mL
- intrinsic pH of the saturated solution [1, 5]: 5.9

SMILES: COc1cc2ncnc(Nc3ccc(F)c(Cl)c3)c2cc1O[C@H]1CC[C@@H](N(C)C(=O)N2CCOCC2)CC1 [Compound (I.2), 4-[(3-chloro-4-fluoro-phenyl)amino]-6-(cis-4-{N-[(morph-1-olin-4-yl)carbonyl]-N-methyl-amino}-cyclohexan-1-yloxy)-7-methoxy-quinazoline]
- solubility [1, 6]: <1 µg/mL
- intrinsic pH of the saturated solution [1, 6]: 5.9

SMILES: COc1cc2ncnc(Nc3ccc(F)c(Cl)c3)c2cc1O[C@H]1CC[C@@H](N(C)C(=O)N2CCOCC2)CC1 [high-melting form monohydrochloride (I.3)] [4-[(3-chloro-4-fluoro-phenyl)amino]-6-(cis-4-{N-[(morph-1-olin-4-yl)carbonyl]-N-methyl-amino}-cyclohexan-1-yloxy)-7-methoxy-quinazoline]
- solubility [1]: 41 µg/mL
- intrinsic pH of the saturated solution [1]: 3.3
